Data set [1] in a line: Maximum values of absorbance and fluorescence of the compounds in DMSO. In kind it is physicochemical. Here is the method: Experimental device, analyzer and reagents used in Examples and comparative experiments are the same as follows. FT-NMR spectroscopy is performed using Bruker Avance 400, and LC/MS analysis is performed using Thermo Dionex ultimate 3000/Velos pro on ion-trap mass spectrometer (ITMS). All reagents purchased from Aldrich are used without additional purification. Whatman filter papers having a diameter of 125 mm are used. Of derivatives used in experiments, 2-(2-Aminophenyl)-1H-benzimidazole) (ABI) is purchased from Aldrich, and NMR analysis and fluorescence/absorbance values are recorded by the method known in the art. […]

Data set [2] has as its target T1, BSA (Bos taurus, UniProt P02769).
T1 construct: purchased Sigma Aldrich
Description: Labelling (photocrosslinking) of protein by UV irradiation, gel electrophoresis, fluorescence intensity. Conditions: 5 minutes after UV irradiation, about 254 nm; FIG. 1a. It counts as binding. Here is the method: (§1) Proteins of BSA, HSA, peroxidase, and lysozyme are treated with the compounds synthesized or purchased in Example 1, and irradiated with UV at about 254 nm. Then, binding of the compound and the protein over UV irradiation time is examined by gel electrophoresis. A gel electrophoresis apparatus (Bio-Rad) and a small vertical gel electrophoresis apparatus are connected and used for gel electrophoresis. For experiment, a 12% SDS gel and a running buffer are directly prepared as follows and used. 12% SDS gel is prepared by mixing 7.9 ml of H2O, 6.5 ml of pH […] Tris-HCl buffer, 10 ml of 30% Acryl amide, 250 μl of 10% SDS gel, 250 μl of APS, and 10 μl of TMEDE. 1× running buffer is prepared by mixing 200 ml of 10×TGS buffer and 1800 ml of H2O.
(§2) Proteins of BSA, HAS, peroxidase, and lysozyme are purchased from Sigma Aldrich. Fluorescence intensity of the labeled protein is measured using BIO-RAD ChemiDoc, and Blue Epi and Green Epi are used as a light source, and 530 nm emission (28 nm bandwidth) and 650 nm emission (50 nm bandwidth) filters are used according to fluorescence wavelength.
(§3) Y axis of FIGS. 1a through 1d represents fluorescence intensity, indicating photocrosslinking degree of the compound and protein.

The target in data set [3] is T2, HSA (Homo sapiens, UniProt P02768).
T2 construct: purchased Sigma Aldrich
Described as above. It counts as binding. Conditions: 5 minutes after UV irradiation, about 254 nm; FIG. 1b. As to the method:
as §1, §2, §3

Data set [4] addresses T3, lysozyme (Gallus gallus, UniProt P00698).
T3 construct: purchased Sigma Aldrich
Described as above. Conditions: 5 minutes after UV irradiation, about 254 nm; FIG. 1d. It counts as binding. As to the method:
as §1, §2, §3

For data set [5], the system named is peroxidase. Described as above. In kind it is binding. Conditions: 5 minutes after UV irradiation, about 254 nm; FIG. 1c. Here is the method: as §1, §2, §3
The subject of data set [6] is BSA, HSA, peroxidase, and lysozyme. The experiment in a line: Protein labelling, results of FIGS. 1a to 1d taken together. It counts as binding. Here is the method:
as §1, §2
Y axis of FIGS. 1a through 1d represents fluorescence intensity, indicating photocrosslinking degree of the compound and protein. […]

T2 sequence (P02768 25-609): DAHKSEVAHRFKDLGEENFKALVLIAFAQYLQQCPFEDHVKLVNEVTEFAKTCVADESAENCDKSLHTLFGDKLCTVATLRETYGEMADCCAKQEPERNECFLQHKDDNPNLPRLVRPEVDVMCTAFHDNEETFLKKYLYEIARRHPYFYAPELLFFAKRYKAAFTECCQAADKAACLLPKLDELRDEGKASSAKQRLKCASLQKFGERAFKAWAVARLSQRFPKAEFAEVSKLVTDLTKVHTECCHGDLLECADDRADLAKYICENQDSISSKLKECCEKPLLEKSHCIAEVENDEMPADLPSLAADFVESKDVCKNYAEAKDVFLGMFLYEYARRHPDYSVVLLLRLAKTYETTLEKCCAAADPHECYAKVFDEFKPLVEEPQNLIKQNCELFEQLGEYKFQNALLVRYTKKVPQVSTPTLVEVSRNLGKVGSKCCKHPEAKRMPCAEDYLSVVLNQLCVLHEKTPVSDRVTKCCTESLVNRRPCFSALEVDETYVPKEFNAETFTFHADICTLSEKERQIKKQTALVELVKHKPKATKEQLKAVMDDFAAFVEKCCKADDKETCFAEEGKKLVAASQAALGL
T1 sequence (P02769 25-607): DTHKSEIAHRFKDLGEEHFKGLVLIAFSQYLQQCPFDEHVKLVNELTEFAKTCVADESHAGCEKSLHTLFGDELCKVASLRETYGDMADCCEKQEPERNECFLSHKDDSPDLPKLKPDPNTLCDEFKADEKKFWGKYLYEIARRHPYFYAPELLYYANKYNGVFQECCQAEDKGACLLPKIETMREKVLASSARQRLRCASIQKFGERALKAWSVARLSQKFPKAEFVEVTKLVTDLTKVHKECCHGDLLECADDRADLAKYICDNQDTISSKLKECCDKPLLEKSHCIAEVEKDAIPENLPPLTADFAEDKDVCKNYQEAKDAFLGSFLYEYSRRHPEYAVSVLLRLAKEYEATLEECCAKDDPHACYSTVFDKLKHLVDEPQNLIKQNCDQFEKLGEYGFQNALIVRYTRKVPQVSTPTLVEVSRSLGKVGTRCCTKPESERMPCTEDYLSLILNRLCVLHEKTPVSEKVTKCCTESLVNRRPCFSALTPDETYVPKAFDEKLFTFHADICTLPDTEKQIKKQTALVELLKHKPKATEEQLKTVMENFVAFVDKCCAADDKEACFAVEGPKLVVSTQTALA
T3 sequence (P00698 19-147): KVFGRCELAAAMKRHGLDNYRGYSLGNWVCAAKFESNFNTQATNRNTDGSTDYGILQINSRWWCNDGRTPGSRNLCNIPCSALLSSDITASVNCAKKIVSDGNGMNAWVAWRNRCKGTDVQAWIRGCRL

`CCN(CC)c1ccc2nc(-c3ccccc3O)[nH]c2c1` [HDBI, 2-(2-hydroxyphenyl)-5-(diethylamino)benzimidazole]: in data set [1], the “Absorbance (maximum value)” value worked out at 360 nm and the “Fluorescence (maximum value)” value amounted to 448 nm. The “Labeling of BSA (fluorescence intensity, photocrosslinking degree)” value (“Labeling of BSA” below) in data set [2] is “significant labeling”. The “Labeling of HSA (fluorescence intensity, photocrosslinking degree)” value (“Labeling of HSA” for short) in data set [3] is on record as “significant labeling”. In addition, in data set [4], the “Labeling of lysozyme (fluorescence intensity, photocrosslinking degree)” value is reported as “significant labeling”. For the same molecule, the “Labeling of peroxidase (fluorescence intensity, photocrosslinking degree)” value (from here on “Labeling of peroxidase”) in data set [5] is on record as “significant labeling”.

Consider `Oc1ccccc1-c1nc2ccccc2[nH]1` [HBI, 2-(2-hydroxyphenyl)benzimidazole], for which, in data set [1], the “Absorbance (maximum value)” value is 320 nm and the “Fluorescence (maximum value)” value was 463 nm. Also, the “Labeling of BSA” value in data set [2] is listed as “significant labeling”. Moreover, the “Labeling of HSA” value in data set [3] is recorded as “significant labeling”. The “Labeling of lysozyme (fluorescence intensity, photocrosslinking degree)” value in data set [4] is recorded as “significant labeling”. Further, in data set [5], the “Labeling of peroxidase” value is on record as “significant labeling”. The “Photocrosslinking property, comparison among the compounds” value in data set [6] was “highest photocrosslinking property”.

For the molecule `Nc1ccccc1-c1nc2ccccc2[nH]1` [ABI, 2-(2-Aminophenyl)-1H-benzimidazole], in data set [1], the “Absorbance (maximum value)” value worked out at 360 nm and the “Fluorescence (maximum value)” value is listed as 415 nm. The “Labeling of HSA” value in data set [3] is recorded as “significant labeling”. The “Labeling of peroxidase” value in data set [5] is “significant labeling”.

Take `Oc1ccccc1-c1nc2ccccc2o1` [HBO, 2-(2-hydroxyphenyl)benzoxazole]: in data set [1], the “Absorbance (maximum value)” value is recorded as 380 nm and the “Fluorescence (maximum value)” value was 480 nm. In data set [2], the “Labeling of BSA” value is given as “significant labeling”.

Consider `Oc1ccccc1-c1nc2ccccc2s1` [HBT, 2-(2-hydroxyphenyl)benzothiazole], for which, in data set [1], the “Absorbance (maximum value)” value came to 350 nm and the “Fluorescence (maximum value)” value was 515 nm.
